Article PMC10337664 (Journal of Chemical Information and Modeling, 2023)

Target: DCAF1 (DDB1-Cul4 associated factor 1), WDR domain (Homo sapiens, UniProt Q9Y4B6)
Test: […] Å cocrystal structure
Format: binding

Sequence of DCAF1 (DDB1-Cul4 associated factor 1), WDR domain (Q9Y4B6 1038-1400): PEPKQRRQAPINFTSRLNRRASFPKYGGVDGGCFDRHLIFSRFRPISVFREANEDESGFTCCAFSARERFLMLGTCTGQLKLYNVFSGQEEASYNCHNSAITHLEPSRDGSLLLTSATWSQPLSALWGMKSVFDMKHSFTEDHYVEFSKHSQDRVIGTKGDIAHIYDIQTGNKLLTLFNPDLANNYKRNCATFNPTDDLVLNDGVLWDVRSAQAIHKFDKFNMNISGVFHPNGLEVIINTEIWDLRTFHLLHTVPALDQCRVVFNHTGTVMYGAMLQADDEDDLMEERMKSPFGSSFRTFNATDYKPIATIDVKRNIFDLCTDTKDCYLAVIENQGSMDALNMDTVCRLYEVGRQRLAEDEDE

Q: How did the Kd turn out when Fc1cccc(N2CCCC(Nc3cc(N4CCOCC4)ncn3)C2)c1 (stereo not shown) [CYCA-117-70] was run?
A: ~70 µM
